{"source": "patent US12655090B2", "about": "“Cyclopropylamide compounds against parasites in fish” (Intervet Inc., priority 2021, dated 2026)", "key": {"[1]": {"test_system": "Copepodids (juvenile sea lice stage of Lepeophtheirus salmonis)", "test": "Juvenile sea lice contact assay", "conditions": "approximately 24 hours continuous exposure in seawater, read-out: Sea lice inhibition (% of dead+damaged copepodids); for inhibition at 0.01 µM: test concentration 10 nM; for inhibition at 10 pM: test concentration 0.01 nM; for inhibition at 0.001 µM: test concentration 1 nM; for inhibition at 0.1 µM: test concentration 100 nM", "procedure": "Copepodids (juvenile sea lice stage of Lepeophtheirus salmonis) were exposed to seawater spiked with declining concentrations of a test compound (dissolved in a DMSO sea-water mixture). Sea lice inhibition (% of dead+damaged copepodids) was assessed after approximately 24 hours of continuous exposure. The vitality of used parasites was confirmed in a negative (solvent) control group."}, "[2]": {"test_system": "Mobile stages of sea lice (pre-adults, adults of Lepeophtheirus salmonis)", "test": "Adult sea lice contact assay", "conditions": "assessed after approximately 1 and 24 hours of continuous exposure, read-out: EC50 (sea lice inhibition, dead+damaged sea lice)", "procedure": "Mobile stages of sea lice (i.e., pre-adults, adults of Lepeophtheirus salmonis) were exposed to seawater spiked with declining concentrations of a test compound (dissolved in a PEG sea-water mixture). Sea lice inhibition (% of dead+damaged sea lice) was assessed after approximately 1 and 24 hours of continuous exposure in comparison to a negative (solvent) control group."}}, "data": [{"compound": "Cc1cc(NC(=O)C2C(c3ccc(F)c(Cl)c3)C2(Cl)Cl)cc(C(=O)NCCCCl)c1Cl", "note": "(racemic) [Compound 1557]", "values": [{"measurement": "inhibition at 0.01 µM", "setting": "[1]", "value": 100, "unit": "%"}]}, {"compound": "O=C(NCCF)c1cc(NC(=O)C2C(c3ccc(F)c(Cl)c3)C2(Cl)Cl)ccc1F", "note": "(racemic) [Compound 1558]", "values": [{"measurement": "inhibition at 10 pM", "setting": "[1]", "value": 100, "unit": "%"}]}, {"compound": "O=C(NCC(F)(F)F)c1cc(NC(=O)C2C(c3ccc(F)c(Cl)c3)C2(Cl)Cl)ccc1F", "note": "(racemic) [Compound 1559]", "values": [{"measurement": "inhibition at 10 pM", "setting": "[1]", "value": 100, "unit": "%"}]}, {"compound": "Cc1c(Cl)cc(NC(=O)C2C(c3ccc(F)c(Cl)c3)C2(Cl)Cl)cc1C(=O)NCC(F)(F)F", "note": "(racemic) [Compound 1561]", "values": [{"measurement": "inhibition at 0.01 µM", "setting": "[1]", "value": 100, "unit": "%"}]}, {"compound": "O=C(NCCCCl)c1cc(NC(=O)C2C(c3ccc(F)c(Cl)c3)C2(Cl)Cl)ccc1F", "note": "(racemic) [Compound 1563]", "values": [{"measurement": "inhibition at 10 pM", "setting": "[1]", "value": 100, "unit": "%"}]}, {"compound": "O=C(NCC(F)(F)F)c1cc(NC(=O)C2C(c3ccc(F)c(Cl)c3)C2(Cl)Cl)cc(F)c1Cl", "note": "(racemic) [Compound 1565]", "values": [{"measurement": "inhibition at 10 pM", "setting": "[1]", "value": 100, "unit": "%"}]}, {"compound": "Cc1c(Cl)cc(NC(=O)C2C(c3ccc(F)c(Cl)c3)C2(Cl)Cl)cc1C(=O)NCCCCl", "note": "(racemic) [Compound 1566]", "values": [{"measurement": "inhibition at 0.01 µM", "setting": "[1]", "value": 100, "unit": "%"}]}, {"compound": "Cc1c(F)cc(NC(=O)C2C(c3ccc(F)c(Cl)c3)C2(Cl)Cl)cc1C(=O)NCC(F)(F)F", "note": "(racemic) [Compound 1567]", "values": [{"measurement": "inhibition at 0.001 µM", "setting": "[1]", "value": 100, "unit": "%"}]}, {"compound": "O=C(NCC(F)(F)F)c1cc(NC(=O)C2C(c3ccc(F)c(Cl)c3)C2(Cl)Cl)cc(Cl)c1F", "note": "(racemic) [Compound 1570]", "values": [{"measurement": "inhibition at 0.01 µM", "setting": "[1]", "value": "≥ 80", "unit": "%"}]}, {"compound": "O=C(NCCC(F)(F)F)c1c(F)ccc(NC(=O)C2C(c3ccc(F)c(Cl)c3)C2(Cl)Cl)c1F", "note": "(racemic) [Compound 1573]", "values": [{"measurement": "inhibition at 0.01 µM", "setting": "[1]", "value": 100, "unit": "%"}]}, {"compound": "O=C(NCCCCl)c1cc(NC(=O)C2C(c3ccc(F)c(Cl)c3)C2(Cl)Cl)cc(F)c1F", "note": "(racemic) [Compound 1574]", "values": [{"measurement": "inhibition at 0.001 µM", "setting": "[1]", "value": 80, "unit": "%"}]}, {"compound": "CC(NC(=O)c1cc(NC(=O)C2C(c3cc(F)c(F)c(F)c3)C2(Cl)Cl)ccc1Cl)C(F)(F)F", "note": "(racemic) [Compound 1602]", "values": [{"measurement": "inhibition at 0.01 µM", "setting": "[1]", "value": 100, "unit": "%"}, {"measurement": "EC50", "setting": "[2]", "value": "10 to 25", "unit": "nM"}]}, {"compound": "O=C(NC1CC(F)(F)C1)c1cc(NC(=O)C2C(c3cc(Cl)cc(Cl)c3)C2(Cl)Cl)ccc1Cl", "note": "(stereo not shown) [Compound 1531]", "values": [{"measurement": "inhibition at 0.01 µM", "setting": "[1]", "value": 100, "unit": "%"}]}, {"compound": "N#CC1(NC(=O)c2cc(NC(=O)C3C(c4ccc(F)c(Cl)c4)C3(Cl)Cl)cc(F)c2F)CC1", "note": "(stereo not shown) [Compound 1589]", "values": [{"measurement": "inhibition at 0.001 µM", "setting": "[1]", "value": 80, "unit": "%"}, {"measurement": "EC50", "setting": "[2]", "value": "≤ 1", "unit": "nM"}]}, {"compound": "O=C(NCC(F)(F)F)c1cc(NC(=O)C2C(c3ccc(F)c(F)c3)C2(Cl)Cl)ccc1Cl", "note": "(stereo not shown) [Compound 1591]", "values": [{"measurement": "inhibition at 0.1 µM", "setting": "[1]", "value": 100, "unit": "%"}]}, {"compound": "CC(C)(NC(=O)c1cc(NC(=O)C2C(c3cc(F)c(F)c(F)c3)C2(Cl)Cl)ccc1Cl)C(F)(F)F", "note": "(stereo not shown) [Compound 1603]", "values": [{"measurement": "inhibition at 0.01 µM", "setting": "[1]", "value": "≥ 80", "unit": "%"}, {"measurement": "EC50", "setting": "[2]", "value": "10 to 25", "unit": "nM"}]}, {"compound": "O=C(NC1(C(F)(F)F)CC1)c1cc(NC(=O)C2C(c3cc(F)c(F)c(F)c3)C2(Cl)Cl)ccc1Cl", "note": "(stereo not shown) [Compound 1604]", "values": [{"measurement": "inhibition at 0.01 µM", "setting": "[1]", "value": 100, "unit": "%"}, {"measurement": "EC50", "setting": "[2]", "value": "10 to 25", "unit": "nM"}]}, {"compound": "O=C(NC1CC(F)(F)C1)c1cc(NC(=O)C2C(c3cccc(C(F)(F)F)c3)C2(Cl)Cl)ccc1Cl", "note": "(stereo not shown) [Compound 1611]", "values": [{"measurement": "inhibition at 0.1 µM", "setting": "[1]", "value": 100, "unit": "%"}]}, {"compound": "N#CC1(NC(=O)c2cc(NC(=O)C3C(c4cc(C(F)(F)F)cc(C(F)(F)F)c4)C3(Cl)Cl)ccc2Cl)CC1", "note": "(stereo not shown) [Compound 1612]", "values": [{"measurement": "inhibition at 0.01 µM", "setting": "[1]", "value": 100, "unit": "%"}, {"measurement": "EC50", "setting": "[2]", "value": "10 to 25", "unit": "nM"}]}, {"compound": "O=C(NCC(F)(F)F)c1cc(NC(=O)C2C(c3cc(C(F)(F)F)cc(C(F)(F)F)c3)C2(Cl)Cl)ccc1Cl", "note": "(stereo not shown) [Compound 1613]", "values": [{"measurement": "inhibition at 0.01 µM", "setting": "[1]", "value": 100, "unit": "%"}, {"measurement": "EC50", "setting": "[2]", "value": "≤ 1", "unit": "nM"}]}, {"compound": "C#CCNC(=O)c1cc(NC(=O)C2C(c3cc(C(F)(F)F)cc(C(F)(F)F)c3)C2(Cl)Cl)ccc1Cl", "note": "(stereo not shown) [Compound 1614]", "values": [{"measurement": "inhibition at 0.001 µM", "setting": "[1]", "value": 80, "unit": "%"}, {"measurement": "EC50", "setting": "[2]", "value": "≤ 1", "unit": "nM"}]}, {"compound": "N#CC1(NC(=O)c2cc(NC(=O)C3C(c4cc(C(F)(F)F)cc(C(F)(F)F)c4)C3(Cl)Cl)cc(F)c2F)CC1", "note": "(stereo not shown) [Compound 1615]", "values": [{"measurement": "inhibition at 0.01 µM", "setting": "[1]", "value": 100, "unit": "%"}, {"measurement": "EC50", "setting": "[2]", "value": "1 to 10", "unit": "nM"}]}, {"compound": "CC1(NC(=O)c2cc(NC(=O)C3C(c4cc(Cl)cc(Cl)c4)C3(Cl)Cl)cc(F)c2F)CC1", "note": "(stereo not shown) [Compound 1616]", "values": [{"measurement": "inhibition at 0.1 µM", "setting": "[1]", "value": 100, "unit": "%"}]}, {"compound": "O=C(NC1(C(F)(F)F)CC1)c1cc(NC(=O)C2C(c3cc(Cl)cc(Cl)c3)C2(Cl)Cl)ccc1F", "note": "(stereo not shown) [Compound 1627]", "values": [{"measurement": "inhibition at 0.1 µM", "setting": "[1]", "value": "≥ 80", "unit": "%"}]}, {"compound": "C#CCNC(=O)c1cc(NC(=O)C2C(c3cc(Cl)cc(Cl)c3)C2(Cl)Cl)cc(F)c1F", "note": "(stereo not shown) [Compound 1629]", "values": [{"measurement": "inhibition at 0.1 µM", "setting": "[1]", "value": 100, "unit": "%"}]}, {"compound": "C#CCNC(=O)c1cc(NC(=O)C2C(c3cc(Cl)cc(Cl)c3)C2(Cl)Cl)ccc1F", "note": "(stereo not shown) [Compound 1631]", "values": [{"measurement": "inhibition at 0.1 µM", "setting": "[1]", "value": 100, "unit": "%"}]}]}
